Patent US7582604B2, “Template-fixed peptidomimetics with antibacterial activity” (Polyphor Ltd., priority 2002, dated 2009)
Converted amounts (≈) assume the structure as drawn. Where a SMILES comes first, the peptide text is derived from it. [ ]: non-standard residue; d: D form.

How the values were obtained:
[1] = test system: Staphylococcus aureus ATCC 29213; assay: MIC, NCCLS broth microdilution in Mueller-Hinton broth; format: cell-based; conditions: 18-20 hours at 37° C.
Description: (§1) Lyophilized peptides were weighed on a Microbalance (Mettler MT5) and dissolved in sterile water containing 0.01% acetic acid.
(§2) The selective antimicrobial activities of the peptides were determined by the standard NCCLS broth microdilution method (see ref 1, below) examined in sterile 96-wells plates (Nunclon polystyrene microtiter plates) in a total volume of 100 μl. Innocula of the microorganisms were prepared with 0.5 Mcfarland standard and then diluted into Müeller-Hinton (MH^+) broth to give appr. 10^6 colony forming units (CFU)/rnl for bacteria Aliquots (50 μl) of the innocula were added to 50 μl of MH broth containing the peptide in serial twofold dilutions. For the screening of the peptides displaying selectivity, the following microorganisms were used: Escherichia coli (ATCC 25922), Pseudomonas aeruginosa (P. aeruginosa) (ATCC 27853), Staphylococcus aureus (ATCC 29213 and ATCC 25923), and clinical isolates of Pseudomonas aeruginosa (P. aeruginosa) V02 16085 and Acinetobacter (Acinetobacter V04 19905/1, Acinetobacter V12 21143/1 and Acinetobacter V12 21193/1). Antimicrobial activities of the peptides were expressed as the minimal inhibitory concentration (MIC) in μg/ml at which no visible growth was observed after 18-20 hours of incubation of the microtiter plates at 37° C.

[2] = test system: human red blood cells (hRBC); format: cell-based; conditions: red cells of human, 1 h
Description: The peptides were tested for their hemolytic activity against human red blood cells (hRBC). Fresh hRBC were washed three times with phosphate buffered saline (PBS) by centrifugation for 10 min at 2000×g. Peptides at a concentration of 100 μg/ml were incubated with 20% v/v hRBC for 1 hour at 37° C. The final erythrocyte concentration was appr. 0.9×10^9/ml. A value of 0% resp. 100% cell lysis was determined by incubation of the hRBC in the presence of PBS alone and resp. 0.1% Triton X-100 in H2O. The samples were centrifuged and the supernatant was 20 fold diluted in PBS buffer and the optical density (OD) of the sample at […] was measured. The 100% lysis value (OD540H2O) gave an OD of approximately 1.6-2.0. Percent hemolysis was calculated as follows: […]

[3] = test system: Acinetobacter V12 21143/1 (clinical isolate); format: cell-based
Description: as §1, §2
(§3) Salt sensitivity of the peptides was tested by the microtiter serial dilution assay as described above. Only MH broth was replaced by MH broth containing 0.9% NaCl.

[4] = test system: Acinetobacter V12 21193/1 (clinical isolate); format: cell-based
Description: as §1, §2, §3

[5] = test system: Escherichia coli ATCC 25922; format: cell-based
Description: as §1, §2, §3

[6] = test system: Escherichia coli ATCC 43827; format: cell-based
[7] = test system: P. aeruginosa ATCC 278853; format: cell-based, Pseudomonas aeruginosa
Description: as §1, §2, §3

[8] = test system: P. aeruginosa VO216085 (clinical isolate); format: cell-based, Pseudomonas aeruginosa
Description: as §1, §2, §3

CC(C)C[C@@H]1NC(=O)[C@H](Cc2c[nH]c3ccccc23)NC(=O)[C@H](CCCNC(=N)N)NC(=O)[C@@H]2CCCN2C(=O)[C@H]2CCCN2C(=O)[C@H](CCCNC(=N)N)NC(=O)[C@H](C(C)C)NC(=O)[C@H](Cc2ccc(O)cc2)NC(=O)[C@H](CCCCN)NC(=O)[C@H](Cc2c[nH]c3ccccc23)NC(=O)[C@H](CCCNC(=N)N)NC(=O)[C@H](CCCNC(=N)N)NC(=O)[C@H](CCCCN)NC(=O)[C@H](CCCCN)NC1=O [Ex. 2] (cyclo(RWLKKRRWKYVR[dP]P))
Minimal inhibitory concentration (MIC) Staphylococcus attreus ATCC 29213 [1]: 100 µg/mL (≈ 51.2 µM)
Hemolysis at 100 μg/ml (percentage hemolysis) [2]: 0.5%
Minimal inhibitory concentration (MIC) Acinetobacter V12 21143/1 [3]: 12.5 µg/mL (≈ 6.41 µM)
Minimal inhibitory concentration (MIC) Acinetobacter V12 21193/1 [4]: 25 µg/mL (≈ 12.8 µM)
Minimal inhibitory concentration (MIC) Escherichia coli ATCC 25922 [5]: 100 µg/mL (≈ 51.2 µM)
Minimal inhibitory concentration (MIC) Escherichia coli ATCC 43827 [6]: 100 µg/mL (≈ 51.2 µM)
Minimal inhibitory concentration (MIC) P. aeruginosa ATCC 278853 [7]: 9.4 µg/mL (≈ 4.82 µM)
Minimal inhibitory concentration (MIC) P. aeruginosa VO216085 [8]: 6.2 µg/mL (≈ 3.18 µM)

CC(C)C[C@@H]1NC(=O)[C@H](Cc2c[nH]c3ccccc23)NC(=O)[C@H](CCCNC(=N)N)NC(=O)[C@H](CCCNC(=N)N)NC(=O)[C@H](CCCCN)NC(=O)[C@H](CCCCN)NC(=O)[C@H](CC(C)C)NC(=O)[C@H](Cc2c[nH]c3ccccc23)NC(=O)[C@H](CCCNC(=N)N)NC(=O)[C@@H]2CCCN2C(=O)[C@H]2CCCN2C(=O)[C@H](CCCNC(=N)N)NC(=O)[C@H](Cc2ccc(O)cc2)NC(=O)[C@H](Cc2ccc(O)cc2)NC1=O [compound 1] (cyclo(RWLKKRRWLYYR[dP]P))
Minimal inhibitory concentration (MIC) Staphylococcus attreus ATCC 29213 [1]: 25 µg/mL (≈ 12.5 µM)
Hemolysis at 100 μg/ml (percentage hemolysis) [2]: 0.5%
Minimal inhibitory concentration (MIC) Acinetobacter V12 21143/1 [3]: 6.2 µg/mL (≈ 3.1 µM)
Minimal inhibitory concentration (MIC) Acinetobacter V12 21193/1 [4]: 6.2 µg/mL (≈ 3.1 µM)
Minimal inhibitory concentration (MIC) Escherichia coli ATCC 25922 [5]: 100 µg/mL (≈ 50 µM)
Minimal inhibitory concentration (MIC) Escherichia coli ATCC 43827 [6]: 200 µg/mL (≈ 100 µM)
Minimal inhibitory concentration (MIC) P. aeruginosa ATCC 278853 [7]: 50 µg/mL (≈ 25 µM)
Minimal inhibitory concentration (MIC) P. aeruginosa VO216085 [8]: 50 µg/mL (≈ 25 µM)

CC(C)C[C@@H]1NC(=O)[C@H](Cc2c[nH]c3ccccc23)NC(=O)[C@H](CCCNC(=N)N)NC(=O)[C@@H]2CCCN2C(=O)[C@H]2CCCN2C(=O)[C@H](CCCNC(=N)N)NC(=O)[C@H](Cc2ccc(O)cc2)NC(=O)[C@H]([C@@H](C)O)NC(=O)[C@H](CCCCN)NC(=O)[C@H](Cc2c[nH]c3ccccc23)NC(=O)[C@H](CCCNC(=N)N)NC(=O)[C@H](CCCNC(=N)N)NC(=O)[C@H](CCCCN)NC(=O)[C@H](CCCCN)NC1=O [compound 3] (cyclo(RWLKKRRWKTYR[dP]P))
Minimal inhibitory concentration (MIC) Staphylococcus attreus ATCC 29213 [1]: 100 µg/mL (≈ 51.2 µM)
Hemolysis at 100 μg/ml (percentage hemolysis) [2]: 1.5%
Minimal inhibitory concentration (MIC) Acinetobacter V12 21143/1 [3]: 25 µg/mL (≈ 12.8 µM)
Minimal inhibitory concentration (MIC) Acinetobacter V12 21193/1 [4]: 100 µg/mL (≈ 51.2 µM)
Minimal inhibitory concentration (MIC) Escherichia coli ATCC 25922 [5]: 200 µg/mL (≈ 102 µM)
Minimal inhibitory concentration (MIC) Escherichia coli ATCC 43827 [6]: 200 µg/mL (≈ 102 µM)
Minimal inhibitory concentration (MIC) P. aeruginosa ATCC 278853 [7]: 200 µg/mL (≈ 102 µM)
Minimal inhibitory concentration (MIC) P. aeruginosa VO216085 [8]: 9.4 µg/mL (≈ 4.81 µM)

CC(C)C[C@@H]1NC(=O)[C@H](Cc2c[nH]c3ccccc23)NC(=O)[C@H](CCCNC(=N)N)NC(=O)[C@@H]2CCCN2C(=O)[C@H]2CCCN2C(=O)[C@H](CCCNC(=N)N)NC(=O)[C@H](Cc2ccc(O)cc2)NC(=O)[C@H](CCC(N)=O)NC(=O)[C@H](CCCCN)NC(=O)[C@H](Cc2c[nH]c3ccccc23)NC(=O)[C@H](CCCNC(=N)N)NC(=O)[C@H](CCCNC(=N)N)NC(=O)[C@H](CCCCN)NC(=O)[C@H](CCCCN)NC1=O [compound 4] (cyclo(RWLKKRRWKQYR[dP]P))
Minimal inhibitory concentration (MIC) Staphylococcus attreus ATCC 29213 [1]: 100 µg/mL (≈ 50.5 µM)
Hemolysis at 100 μg/ml (percentage hemolysis) [2]: 0.6%
Minimal inhibitory concentration (MIC) Acinetobacter V12 21143/1 [3]: 12.5 µg/mL (≈ 6.31 µM)
Minimal inhibitory concentration (MIC) Acinetobacter V12 21193/1 [4]: 25 µg/mL (≈ 12.6 µM)
Minimal inhibitory concentration (MIC) Escherichia coli ATCC 25922 [5]: 100 µg/mL (≈ 50.5 µM)
Minimal inhibitory concentration (MIC) Escherichia coli ATCC 43827 [6]: 200 µg/mL (≈ 101 µM)
Minimal inhibitory concentration (MIC) P. aeruginosa ATCC 278853 [7]: 6.2 µg/mL (≈ 3.13 µM)
Minimal inhibitory concentration (MIC) P. aeruginosa VO216085 [8]: 3.1 µg/mL (≈ 1.57 µM)

CC(C)C[C@@H]1NC(=O)[C@H](Cc2c[nH]c3ccccc23)NC(=O)[C@H](CCCNC(=N)N)NC(=O)[C@@H]2CCCN2C(=O)[C@H]2CCCN2C(=O)[C@H](CCCNC(=N)N)NC(=O)[C@H](Cc2ccc(O)cc2)NC(=O)[C@H](Cc2ccc(O)cc2)NC(=O)[C@H](CCCCN)NC(=O)[C@H](Cc2c[nH]c3ccccc23)NC(=O)[C@H](CCCNC(=N)N)NC(=O)[C@H](CCCNC(=N)N)NC(=O)[C@H](CCCCN)NC(=O)[C@H](C(C)C)NC1=O [compound 5] (cyclo(RWLVKRRWKYYR[dP]P))
Minimal inhibitory concentration (MIC) Staphylococcus attreus ATCC 29213 [1]: 100 µg/mL (≈ 50.3 µM)
Hemolysis at 100 μg/ml (percentage hemolysis) [2]: 0.5%

CC(C)C[C@@H]1NC(=O)[C@H](Cc2c[nH]c3ccccc23)NC(=O)[C@H](CCCNC(=N)N)NC(=O)[C@@H]2CCCN2C(=O)[C@H]2CCCN2C(=O)[C@H](CCCNC(=N)N)NC(=O)[C@H](Cc2ccc(O)cc2)NC(=O)[C@H](Cc2ccc(O)cc2)NC(=O)[C@H](C(C)C)NC(=O)[C@H](Cc2c[nH]c3ccccc23)NC(=O)[C@H](CCCNC(=N)N)NC(=O)[C@H](CCCNC(=N)N)NC(=O)[C@H](CCCCN)NC(=O)[C@H](CCCCN)NC1=O [compound 6] (cyclo(RWLKKRRWVYYR[dP]P))
Minimal inhibitory concentration (MIC) Staphylococcus attreus ATCC 29213 [1]: 100 µg/mL (≈ 50.3 µM)
Hemolysis at 100 μg/ml (percentage hemolysis) [2]: 0.5%

CC(C)C[C@@H]1NC(=O)[C@H](Cc2c[nH]c3ccccc23)NC(=O)[C@H](CCCNC(=N)N)NC(=O)[C@@H]2CCCN2C(=O)[C@H]2CCCN2C(=O)[C@H](CCCNC(=N)N)NC(=O)[C@H](CCC(N)=O)NC(=O)[C@H](Cc2ccc(O)cc2)NC(=O)[C@H](CCCCN)NC(=O)[C@H](Cc2c[nH]c3ccccc23)NC(=O)[C@H](CCCNC(=N)N)NC(=O)[C@H](CCCNC(=N)N)NC(=O)[C@H](CCCCN)NC(=O)[C@H](CCCCN)NC1=O [compound 7] (cyclo(RWLKKRRWKYQR[dP]P))
Minimal inhibitory concentration (MIC) Staphylococcus attreus ATCC 29213 [1]: 200 µg/mL (≈ 101 µM)
Hemolysis at 100 μg/ml (percentage hemolysis) [2]: 0.7%

CC(C)C[C@@H]1NC(=O)[C@H](Cc2c[nH]c3ccccc23)NC(=O)[C@H](CCCNC(=N)N)NC(=O)[C@@H]2CCCN2C(=O)[C@H]2CCCN2C(=O)[C@H](CCCNC(=N)N)NC(=O)[C@H](CC(C)C)NC(=O)[C@H](Cc2ccc(O)cc2)NC(=O)[C@H](CCCCN)NC(=O)[C@H](Cc2c[nH]c3ccccc23)NC(=O)[C@H](CCCNC(=N)N)NC(=O)[C@H](CCCNC(=N)N)NC(=O)[C@H](CCCCN)NC(=O)[C@H](CCCCN)NC1=O [compound 8] (cyclo(RWLKKRRWKYLR[dP]P))
Minimal inhibitory concentration (MIC) Staphylococcus attreus ATCC 29213 [1]: 100 µg/mL (≈ 50.9 µM)
Hemolysis at 100 μg/ml (percentage hemolysis) [2]: 0.4%
